According to article PMC10926604, “Discovery of a novel small molecule as CD47/SIRPα and PD-1/PD-L1 dual inhibitor for cancer immunotherapy” (Cell Communication and Signaling : CCS, 2024):
“Also recorded” adds a separate entry of the source.

Columns and labels:
human SIRPα (hSIRPα) = target: T1, human SIRPα (hSIRPα) (Homo sapiens, UniProt P78324); assay: MST binding assay, human SIRPα; details: SIRPα-IgV-His, read-out: dissociation constant (KD) for human SIRPα
T1 construct: SIPRα-IgV-His (human: SIA-H5225, mouse: SIA-M52H4, ACRO Biosystems); His; purchased ACRO Biosystems SIA-H5225
Experimental: (§1) SIPRα-IgV-His (human: SIA-H5225, mouse: SIA-M52H4, ACRO Biosystems) and PD-L1-IgV-His (human: 10,084-H08H, mouse: 50,010-M08H, Sino Biological) proteins were labeled with Red-NHS647 dye (NT-MO-L001, NanoTemper) for subsequent experiments. SMC18 (C385-0664, ChemDiv) was serially diluted using PBST (from 0.0191 μM to 200 μM) and mixed with the labeled proteins. The samples were then aspirated using standard capillaries and assayed by MST instrument (Monolith NT.115, NanoTemper), and the results were analyzed using the analytical software Monolith NT.115 system to calculate the dissociation constant (KD) values.

murine SIRPα (mSIRPα) = target: T2, murine SIRPα (mSIRPα) (Mus musculus, UniProt P97797); assay: MST binding assay, murine SIRPα; details: SIRPα-IgV-His, read-out: dissociation constant (KD) for murine SIRPα
T2 construct: SIPRα-IgV-His (human: SIA-H5225, mouse: SIA-M52H4, ACRO Biosystems); His; purchased ACRO Biosystems SIA-M52H4
Experimental: as §1

hCD112R/hCD112 = hCD112R/hCD112 (Homo sapiens, UniProt Q6DKI7+Q92692); assay: Blockade of other immune checkpoint pathways, CD112R/CD112; assay type: cell-based; details: Fig. S2
SIRPα = assay: Tyrosine phosphorylation assay of SIRPα, BMDM/MC38 co-culture; assay type: cell-based, mouse; details: 50 μM, BMDMs co-cultured with MC38 cells, 30 min, Western blotting
Experimental: Murine bone marrow-derived macrophages were subjected to induction using murine GM-CSF for 7 days. Subsequently, the induced macrophages (2 × 10^6 cells/well) were co-cultured with MC38 cells (1 × 10^7 cells/well). The co-cultures were treated with PBS (negative control), SMC18 (50 μM), or anti-mouse CD47 (clone miap301, 20 μg/mL, positive control) and incubated at 37℃ for 30 min. Following this, cells were washed and lysed. Finally, cell lysates were collected for immunoprecipitation and Western blotting.
In brief, the protein samples were separated by SDS-PAGE using a 4% stacking gel and an 8 ~ 10% main gel and transferred to a polyvinylidene difluoride (PVDF) membrane. The membrane was blocked with 5% milk at room temperature for 1–2 h and then incubated with anti-SIRPα (dilution 1:1000, AB8120, Abcam), anti-PD-1 (dilution 1:200, ab52587, Abcam) or anti-Phosphotyrosine (dilution 1:1000, 05–321, Millipore) dissolved in primary antibody dilution buffer overnight at 4 °C. Then the membrane was washed and incubated with appropriate HRP-coupled goat anti-rabbit IgG (D110058, Sangon Biotech) and HRP-coupled goat anti-mouse IgG (D110087, Sangon Biotech) for 1–2 h at room temperature. Finally, the membranes were exposed using an enhanced chemiluminescence (ECL) detection kit (P1030, Applygen). Results were analyzed by ImageJ software (NIH, Bethesda, MD, United States).

[1] = system: GFP+ B16-OVA cells phagocytosed by BMDMs; assay: Phagocytosis assay, BMDMs with GFP+ B16-OVA cells; assay type: cell-based, mouse; details: 50 μM, flow cytometry
Experimental: Bone marrow-derived macrophage cells (BMDMs) from C57BL/6N mice were isolated and induced with 20 ng/mL of mouse granulocyte–macrophage colony-stimulating factor (GM-CSF, 315–03, Peprotech) for 7 days, with regular medium changes and cytokine replenishment during cell induction. The cells were then harvested for subsequent experiments. Subsequently, the cells were treated with SMC18 at a concentration of 50 μΜ. The anti-CD47 antibody (clone miap301, 16–0471-81, Invitrogen) was employed as a positive control with 20 µg/mL. Phagocytosis was measured by the co-culture of macrophages with green fluorescent protein (GFP^+) tumor cells (GFP^+ MC38 and GFP^+ B16-OVA cells) at a ratio of 1:4 in serum-free medium at 37 °C for 4 h. The cells were harvested and identified by flow cytometry using anti-F4/80 antibody (BM8, 17–4801-82, eBioscience). The phagocytosis rate was calculated as the percentage F4/80^+GFP^+ cells relative to the total number of total F4/80^+ cells. For confocal microscopy detection, BMDMs were labelled with DiR dye (R-22070, Beyotime) at a final concentration of 200 μM, followed by a 30-min staining period. After washing with PBS three times, the cells were cultured with DMEM medium devoid of serum for 2 h. Subsequently, MC38-EGFP cells were seeded onto BMDMs at a density of 4 × 10^6 cells per well. […]

MC38 tumor-bearing mice [2] = assay: MC38 tumor model; assay type: in vivo, mouse; details: 2 or 6 mg/kg i.p. daily for 14 days
Experimental: The animal studies were conducted in accordance with the guidelines and approved by the Ethics Committee of Zhengzhou University (ZZUIRB 2021–36). Six weeks old female mice were purchased from the Vital River Laboratory (Beijing, China). Mouse MC38 colorectal cancer cells (1 × 10^6) were harvested and subcutaneously (s.c.) injected into the right abdomen of the mice. When the tumor size reached 40 ~ 80 mm^3, the mice were randomly assigned into three groups (n = 5 per group) to receive intraperitoneal injections daily of SMC18 (2 mg/kg), SMC18 (6 mg/kg) or normal saline for 14 days. At day 23, mice were euthanized for ex vivo analysis.

MC38 tumor-bearing mice [3] = assay: MC38 tumor model, SMC18 combined with radiotherapy; assay type: in vivo, mouse; details: one 20 Gy dose local IR + SMC18 2 mg/kg i.p. daily for 14 days
Experimental: For the combined radiotherapy treatment model, mice were randomly grouped into four groups when the tumor volume reached approximately 40 ~ 60 mm^3. Mice were treated with a single dose of 20 Gy of local tumor irradiation (Precision X-Ray, XRad320) and daily intraperitoneal injections of SMC18 (2 mg/kg) or equivalent amount of saline for 14 days. Tumor volume was measured every other day using the formula V = 1/2 × a × b × c, where a, b, and c are the tumor's length, width, and height, respectively.

Sequence of hCD112R/hCD112 (Q6DKI7 whole entry): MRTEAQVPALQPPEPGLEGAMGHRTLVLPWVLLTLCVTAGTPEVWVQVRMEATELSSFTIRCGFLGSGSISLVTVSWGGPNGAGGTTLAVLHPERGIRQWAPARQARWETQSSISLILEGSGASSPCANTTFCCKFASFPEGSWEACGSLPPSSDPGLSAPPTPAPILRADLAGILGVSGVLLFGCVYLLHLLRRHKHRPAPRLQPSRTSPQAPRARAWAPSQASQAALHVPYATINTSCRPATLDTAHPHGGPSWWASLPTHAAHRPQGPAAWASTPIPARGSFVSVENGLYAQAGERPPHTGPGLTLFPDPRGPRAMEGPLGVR
Sequence of hCD112R/hCD112 (Q92692 32-538): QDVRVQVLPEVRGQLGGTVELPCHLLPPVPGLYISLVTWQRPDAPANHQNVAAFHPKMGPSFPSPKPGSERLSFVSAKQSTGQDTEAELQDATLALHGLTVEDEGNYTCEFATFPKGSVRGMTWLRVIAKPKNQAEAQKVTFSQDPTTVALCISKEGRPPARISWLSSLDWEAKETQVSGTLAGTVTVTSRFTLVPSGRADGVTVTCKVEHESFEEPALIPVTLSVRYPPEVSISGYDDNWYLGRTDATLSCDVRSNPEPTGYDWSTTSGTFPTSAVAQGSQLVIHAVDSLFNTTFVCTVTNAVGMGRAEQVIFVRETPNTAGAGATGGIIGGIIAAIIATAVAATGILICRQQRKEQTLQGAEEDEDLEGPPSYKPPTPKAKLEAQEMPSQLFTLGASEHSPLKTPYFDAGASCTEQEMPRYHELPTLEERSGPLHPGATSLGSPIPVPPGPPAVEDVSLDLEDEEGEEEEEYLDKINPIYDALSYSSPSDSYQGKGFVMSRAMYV
T2 sequence (P97797 32-137 limits assumed): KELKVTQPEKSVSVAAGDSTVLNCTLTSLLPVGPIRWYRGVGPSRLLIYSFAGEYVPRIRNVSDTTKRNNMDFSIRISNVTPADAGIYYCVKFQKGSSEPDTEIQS
T1 sequence (P78324 32-137 limits assumed): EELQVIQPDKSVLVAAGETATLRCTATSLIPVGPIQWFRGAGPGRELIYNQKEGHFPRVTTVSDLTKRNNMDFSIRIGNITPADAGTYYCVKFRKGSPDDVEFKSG

## Cc1cc(C)cc(NS(=O)(=O)c2ccc3[nH]cc(C(=O)NCCc4ccccc4)c(=O)c3c2)c1 [SMC18]
Human SIRPα (hSIRPα)
  Kd: 550 ± 100 nM
Murine SIRPα (mSIRPα)
  Kd: 2490 ± 1900 nM
hCD112R/hCD112
  inhibitory effect on hCD112R/hCD112 pathway: no blocking effect; also recorded: did not impede
SIRPα
  tyrosine phosphorylation levels of SIRPα: significantly suppressed
[1]
  phagocytosis of B16-OVA cells by BMDMs: enhances; also recorded: significantly increased
MC38 tumor-bearing mice [2]
  body weight of tumor-bearing mice: without affecting
  growth of MC38 tumors: effectively delayed
MC38 tumor-bearing mice [3]
  body weight of the mice, combination with radiotherapy: without affecting
  tumor growth, combination with radiotherapy: significantly inhibited
